{
  "source": "patent US20260184691A1",
  "about": "“INHIBITORS AND DEGRADERS OF PIP4K PROTEIN” (Larkspur Biosciences, Inc., priority 2022, published 2026)",
  "data": [
    {"biological_target": "T1, endogenous PIP4K2C C-terminally tagged with HiBiT peptide in MOLT-4 cells (Homo sapiens, UniProt Q8TBX8)", "T1 construct": "to C-terminally tag endogenous PIP4K2C with HiBiT peptide; host or cells: MOLT-4 (CRISPR-Cas9 knock-in clone)", "T1 sequence (Q8TBX8 1-421)": "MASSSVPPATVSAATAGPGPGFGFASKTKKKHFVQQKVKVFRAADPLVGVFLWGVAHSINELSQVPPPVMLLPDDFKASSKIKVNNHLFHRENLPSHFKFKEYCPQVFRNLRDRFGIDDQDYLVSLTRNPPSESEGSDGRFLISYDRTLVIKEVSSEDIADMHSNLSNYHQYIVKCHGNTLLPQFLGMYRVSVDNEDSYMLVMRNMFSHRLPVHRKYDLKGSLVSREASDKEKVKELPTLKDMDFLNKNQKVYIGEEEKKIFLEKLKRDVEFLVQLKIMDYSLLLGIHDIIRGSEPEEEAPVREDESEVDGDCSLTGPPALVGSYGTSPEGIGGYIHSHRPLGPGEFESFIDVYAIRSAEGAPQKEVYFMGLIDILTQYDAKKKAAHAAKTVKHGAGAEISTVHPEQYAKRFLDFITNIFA", "experiment": "HiBiT PIP4K2C degradation assay in MOLT-4 cells", "assay_type": "cell-based", "details": "24 hours, 10-point dose response, top concentration 10 micromolar, read-out: HiBIT-degradation MOLT4 PIP4k2C 24 hours DC50", "how_it_was_run": "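Cells bearing C-terminal HiBiT knock-in were exposed to a 10-point, 3-fold dilution series (top 10 micromolar, duplicate) for 24 h at 37C, 5% CO2. Remaining tagged protein read by lytic HiBiT luminescence; DC50 from Hill-equation fit.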", "units": {"DC50": "nM"}, "values": [
      {"smiles": "O=C1CCC(N2Cc3cc(OCCCCCCCC(=O)N4CCC5(CC4)CCN(c4cncc(Nc6ncc(Cl)c(-c7cccc(-c8ccccc8)c7)n6)c4)C5=O)ccc3C2=O)C(=O)N1", "note": "(stereo not drawn) [Compound 63, 3-(5-((8-(2-(5-((4-([1,1′-biphenyl]-3-yl)-5-chloropyrimidin-2-yl)amino)pyridin-3-yl)-1-oxo-2,8-diazaspiro[4.5]decan-8-yl)-8-oxooctyl)oxy)-1-oxoisoindolin-2-yl)piperidine-2,6-dione]", "DC50": "< 500"},
      {"smiles": "O=C1CCC(N2Cc3cc(OCCCCC(=O)N4CCC5(CC4)CCN(c4cncc(Nc6ncc(Cl)c(-c7cccc(-c8ccccc8)c7)n6)c4)C5=O)ccc3C2=O)C(=O)N1", "note": "(stereo not drawn) [Compound 87, 3-(5-((5-(2-(5-((4-([1,1′-biphenyl]-3-yl)-5-chloropyrimidin-2-yl)amino)pyridin-3-yl)-1-oxo-2,8-diazaspiro[4.5]decan-8-yl)-5-oxopentyl)oxy)-1-oxoisoindolin-2-yl)piperidine-2,6-dione]", "DC50": "< 500"},
      {"smiles": "O=C(CCCCCOc1cccc2c1C(=O)N(C1CCC(=O)NC1=O)C2=O)NCCCCCC(=O)Nc1cncc(Nc2ncc(Cl)c(-c3cccc(-c4ccccc4)c3)n2)c1", "note": "(stereo not drawn) [Compound 83, N-(5-((4-([1,1′-biphenyl]-3-yl)-5-chloropyrimidin-2-yl)amino)pyridin-3-yl)-6-(6-((2-(2,6-dioxopiperidin-3-yl)-1,3-dioxoisoindolin-4-yl)oxy)hexanamido)hexanamide]", "DC50": "1000 to 5000"},
      {"smiles": "O=C1CCC(Nc2ccc(N3CCC(CC(=O)N4CCC5(CC4)CCN(c4cncc(Nc6ncc(Cl)c(-c7cccc(C8CCCCC8)c7)n6)c4)C5=O)CC3)cc2)C(=O)N1", "note": "(stereo not drawn) [Compound 189, 3-((4-(4-(2-(2-(5-((5-chloro-4-(3-cyclohexylphenyl)pyrimidin-2-yl)amino)pyridin-3-yl)-1-oxo-2,8-diazaspiro[4.5]decan-8-yl)-2-oxoethyl)piperidin-1-yl)phenyl)amino)piperidine-2,6-dione]", "DC50": "500 to 1000"},
      {"smiles": "CC(=O)N1CCCC(n2cc(-c3nc(Nc4cncc(N5CCC6(CCN(C(=O)CN7CCC(c8ccc(NC9CCC(=O)NC9=O)cc8)CC7)CC6)C5=O)c4)ncc3Cl)cn2)C1", "note": "(stereo not drawn) [Compound 197, 3-((4-(1-(2-(2-(5-((4-(1-(1-acetylpiperidin-3-yl)-1H-pyrazol-4-yl)-5-chloropyrimidin-2-yl)amino)pyridin-3-yl)-1-oxo-2,8-diazaspiro[4.5]decan-8-yl)-2-oxoethyl)piperidin-4-yl)phenyl)amino)piperidine-2,6-dione]", "DC50": "< 500"},
      {"smiles": "O=C1CCC(Nc2ccc(C3CCN(CCN4CCC5(CC4)CCN(c4cncc(Nc6ncc(Cl)c(-c7cccc(C8CC8)c7)n6)c4)C5=O)CC3)cc2)C(=O)N1", "note": "(stereo not drawn) [Compound 211, 3-((4-(1-(2-(2-(5-((5-chloro-4-(3-cyclopropylphenyl)pyrimidin-2-yl)amino)pyridin-3-yl)-1-oxo-2,8-diazaspiro[4.5]decan-8-yl)ethyl)piperidin-4-yl)phenyl)amino)piperidine-2,6-dione]", "DC50": "< 500"},
      {"smiles": "O=C1CCC(N2C(=O)c3cccc(OCCCN4CCN(CCCCC(=O)Nc5cncc(Nc6ncc(Cl)c(-c7cccc(-c8ccccc8)c7)n6)c5)CC4)c3C2=O)C(=O)N1", "note": "(stereo not drawn) [Compound 65, N-(5-((4-([1,1′-biphenyl]-3-yl)-5-chloropyrimidin-2-yl)amino)pyridin-3-yl)-5-(4-(3-((2-(2,6-dioxopiperidin-3-yl)-1,3-dioxoisoindolin-4-yl)oxy)propyl)piperazin-1-yl)pentanamide]", "DC50": "< 500"},
      {"smiles": "O=C1CCC(N2C(=O)c3cccc(OCCCCCCC(=O)N4CCC5(CC4)CCN(c4cncc(Nc6ncc(Cl)c(-c7cccc(-c8ccccc8)c7)n6)c4)C5=O)c3C2=O)C(=O)N1", "note": "(stereo not drawn) [Compound 80, 4-((7-(2-(5-((4-([1,1′-biphenyl]-3-yl)-5-chloropyrimidin-2-yl)amino)pyridin-3-yl)-1-oxo-2,8-diazaspiro[4.5]decan-8-yl)-7-oxoheptyl)oxy)-2-(2,6-dioxopiperidin-3-yl)isoindoline-1,3-dione]", "DC50": "< 500"},
      {"smiles": "O=C1CCC(N2C(=O)c3cccc(OCCCN4CCN(CCCCCCC(=O)Nc5cncc(Nc6ncc(Cl)c(-c7cccc(-c8ccccc8)c7)n6)c5)CC4)c3C2=O)C(=O)N1", "note": "(stereo not drawn) [Compound 58, N-(5-((4-([1,1′-biphenyl]-3-yl)-5-chloropyrimidin-2-yl)amino)pyridin-3-yl)-7-(4-(3-((2-(2,6-dioxopiperidin-3-yl)-1,3-dioxoisoindolin-4-yl)oxy)propyl)piperazin-1-yl)heptanamide]", "DC50": "< 500"},
      {"smiles": "O=C(COc1cccc2c1C(=O)N(C1CCC(=O)NC1=O)C2=O)NCCCCCCCCCC(=O)Nc1cncc(Nc2ncc(Cl)c(-c3cccc(-c4ccccc4)c3)n2)c1", "note": "(stereo not drawn) [Compound 85, N-(5-((4-([1,1′-biphenyl]-3-yl)-5-chloropyrimidin-2-yl)amino)pyridin-3-yl)-10-(2-((2-(2,6-dioxopiperidin-3-yl)-1,3-dioxoisoindolin-4-yl)oxy)acetamido)decanamide]", "DC50": "500 to 1000"},
      {"smiles": "O=C1CCC(N2C(=O)c3ccc(OCCCCCC(=O)N4CCC5(CC4)CCN(c4cncc(Nc6ncc(Cl)c(-c7cccc(-c8ccccc8)c7)n6)c4)C5=O)cc3C2=O)C(=O)N1", "note": "(stereo not drawn) [Compound 75, 5-((6-(2-(5-((4-([1,1′-biphenyl]-3-yl)-5-chloropyrimidin-2-yl)amino)pyridin-3-yl)-1-oxo-2,8-diazaspiro[4.5]decan-8-yl)-6-oxohexyl)oxy)-2-(2,6-dioxopiperidin-3-yl)isoindoline-1,3-dione]", "DC50": "< 500"},
      {"smiles": "O=C1CCC(Nc2ccc(C3CCN(CC(=O)N4CCC5(CC4)CCN(c4cncc(Nc6ncc(Cl)c(-c7cccc(N8CCCC8)c7)n6)c4)C5=O)CC3)cc2)C(=O)N1", "note": "(stereo not drawn) [Compound 179, 3-((4-(1-(2-(2-(5-((5-chloro-4-(3-(pyrrolidin-1-yl)phenyl)pyrimidin-2-yl)amino)pyridin-3-yl)-1-oxo-2,8-diazaspiro[4.5]decan-8-yl)-2-oxoethyl)piperidin-4-yl)phenyl)amino)piperidine-2,6-dione]", "DC50": "< 500"},
      {"smiles": "O=C(COc1ccc2c(c1)CN(C1CCC(=O)NC1=O)C2=O)NCCCCCCCCCC(=O)Nc1cncc(Nc2ncc(Cl)c(-c3cccc(-c4ccccc4)c3)n2)c1", "note": "(stereo not drawn) [Compound 60, N-(5-((4-([1,1′-biphenyl]-3-yl)-5-chloropyrimidin-2-yl)amino)pyridin-3-yl)-10-(2-((2-(2,6-dioxopiperidin-3-yl)-1-oxoisoindolin-5-yl)oxy)acetamido)decanamide]", "DC50": "< 500"},
      {"smiles": "O=C(COc1ccc2c3c(cccc13)C(=O)N2C1CCC(=O)NC1=O)NCCCCCCCCCC(=O)Nc1cncc(Nc2ncc(Cl)c(-c3cccc(-c4ccccc4)c3)n2)c1", "note": "(stereo not drawn) [Compound 167, N-(5-((4-([1,1′-biphenyl]-3-yl)-5-chloropyrimidin-2-yl)amino)pyridin-3-yl)-10-(2-((1-(2,6-dioxopiperidin-3-yl)-2-oxo-1,2-dihydrobenzo[cd]indol-6-yl)oxy)acetamido)decanamide]", "DC50": "< 500"},
      {"smiles": "Cn1c(=O)n(C2CCC(=O)NC2=O)c2ccc(C3CCN(CC(=O)N4CCC5(CC4)CCN(c4cncc(Nc6ncc(Cl)c(-c7cccc(C8CC8)c7)n6)c4)C5=O)CC3)cc21", "note": "(stereo not drawn) [Compound 209, 3-(5-(1-(2-(2-(5-((5-chloro-4-(3-cyclopropylphenyl)pyrimidin-2-yl)amino)pyridin-3-yl)-1-oxo-2,8-diazaspiro[4.5]decan-8-yl)-2-oxoethyl)piperidin-4-yl)-3-methyl-2-oxo-2,3-dihydro-1H-benzo[d]imidazol-1-yl)piperidine-2,6-dione]", "DC50": "< 500"}
    ]}
  ]
}
